Non-standard residues stand in square brackets, D forms with d. Residues, ends and D or L forms follow the SMILES beside them. pS = N[C@@H](COP(=O)(O)O)C(=O)O
System: seven human 14-3-3 isoforms
Assay: FA of ERRγ phosphopeptides with the seven 14-3-3 isoforms
Type: binding
Details: 14-3-3γ compared with other isoforms; Figure 2b, Figure S1

Structure (SMILES): CC(=O)N[C@@H](CCCCN)C(=O)N[C@@H](CCCNC(=N)N)C(=O)N[C@@H](CCCNC(=N)N)C(=O)N[C@@H](CCCNC(=N)N)C(=O)N[C@@H](CCCCN)C(=O)N[C@@H](COP(=O)(O)O)C(=O)N[C@@H](CS)C(=O)N[C@@H](CCC(N)=O)C(=O)N[C@@H](C)C(N)=O [DBD] (Ac-KRRRK[pS]CQA-NH2)
- Relative affinity among 14-3-3 isoforms (in words): highest affinity
